The test system of the assay is tobacco budworm (Heliothis virescens [Fabricius]). Description: surface-treated diet test against the tobacco budworm. It counts as in vivo. Particulars: tobacco budworm second instar larvae, surface-treated diet, 0.25 millimoles of candidate insecticide on the surface of the diet, five-day exposure; for Percent Mortality: compared to total number of insects infested; for Percent Growth Inhibition: inhibition of insect weight relative to untreated controls. As for the experimental part:
Candidate insecticides were evaluated for activity against the tobacco budworm (Heliothis virescens [Fabricius]) in a surface-treated diet test.
In this test one mL of molten (65–70° C.) wheat germ-based artificial diet was pipetted into each well of a four by six (24 well) multi-well plate (ID# 430345-15.5 mm dia.×17.6 mm deep; Corning Costar Corp., One Alewife Center, Cambridge, Mass. 02140). The diet was allowed to cool to ambient temperature before treatment with candidate insecticide.
For a determination of insecticidal activity, solutions of the candidate insecticides were prepared for testing using a Packard 204DT Multiprobe® Robotic System (Packard Instrument Company, 800 Research Parkway, Meriden, Conn. 06450), in which the robot first diluted a standard 50 millimolar DMSO solution of candidate insecticide with a 1:1 water/acetone solution (V/V) in a ratio of 1:7 stock solution to water/acetone. The robot subsequently pipetted 40 microliters of the so-prepared solution onto the surface of the diet in each of three wells in the 24 multi-well plate. The process was repeated with solutions of seven other candidate insecticides. Once treated, the contents of the multi-well plate were allowed to dry, leaving 0.25 millimoles of candidate insecticide on the surface of the diet, or a concentration of 0.25 millimolar. Appropriate untreated controls containing only DMSO on the diet surface were also included in this test. […]
In each well of the test plate was placed one second instar tobacco budworm larvea, each weighing approximately five milligrams. After the larvae were placed in each well, the plate was sealed with clear polyfilm adhesive tape. The tape over each well was perforated to ensure an adequate air supply. The plates were then held in a growth chamber at 25° C. and 60% relative humidity for five days (light 14 hours/day).
After the five-day exposure period insecticidal activity for each rate of application of candidate insecticide was assessed as percent inhibition of insect weight relative to the weight of insects from untreated controls, and percent mortality when compared to the total number of insects infested.
The test compounds of formula I are identified by numbers that correspond to those in Table 1.
These tests were conducted with 0.25 millimoles of candidate insecticide on the surface of the diet.

As to `CCON=Cc1ccc(CN2CCC(C(OC(=O)Nc3ccc(Br)cc3)c3ccc(C(F)(F)F)cc3)CC2)cc1` (centres unmarked) [Compound 183], the “Percent Mortality” value was 100% and the “Percent Growth Inhibition” value is reported as 100%.
On to `CCON=Cc1ccc(CN2CCC(C(OC(=O)Nc3cccc(Cl)c3Cl)c3ccc(C(F)(F)F)cc3)CC2)cc1` (centres unmarked) [Compound 188], for which the “Percent Mortality” value was 100% and the “Percent Growth Inhibition” value is on record as 100%.
Consider `CCON=Cc1ccc(CN2CCC(C(OC(=O)Nc3ccc(Cl)c(Cl)c3)c3ccc(C(F)(F)F)cc3)CC2)cc1` (centres unmarked) [Compound 189], for which the “Percent Mortality” value turned out to be 100% and the “Percent Growth Inhibition” value amounted to 100%.
For `CCON=Cc1ccc(CN2CCC(C(OC(=O)Nc3ccc(Cl)cc3Cl)c3ccc(C(F)(F)F)cc3)CC2)cc1` (centres unmarked) [Compound 190], the “Percent Mortality” value worked out at 100% and the “Percent Growth Inhibition” value is listed as 100%.
Regarding `CCON=Cc1ccc(CN2CCC(C(OC(=O)Nc3cc(Cl)ccc3Cl)c3ccc(C(F)(F)F)cc3)CC2)cc1` (centres unmarked) [Compound 191], the “Percent Mortality” value was determined as 100% and the “Percent Growth Inhibition” value was found to be 100%.
For the compound `CCON=Cc1ccc(CN2CCC(C(OC(=O)Nc3cc(Cl)c(Cl)cc3Cl)c3ccc(C(F)(F)F)cc3)CC2)cc1` (centres unmarked) [Compound 192], the “Percent Mortality” value worked out at 67% and the “Percent Growth Inhibition” value is reported as 98%.
As for `CCON=Cc1ccc(CN2CCC(C(OC(=O)Nc3ccc(F)cc3F)c3ccc(C(F)(F)F)cc3)CC2)cc1` (centres unmarked) [Compound 193], the “Percent Mortality” value is 100% and the “Percent Growth Inhibition” value is listed as 100%.
In the case of `CON=Cc1ccc(CN2CCC(C(OC(=O)Nc3ccc(F)c(F)c3)c3ccc(OC(F)(F)F)cc3)CC2)cc1` (centres unmarked) [Compound 194], the “Percent Mortality” value came out at 100% and the “Percent Growth Inhibition” value was 100%.
`CCON=Cc1ccc(CN2CCC(C(OC(=O)Nc3ccc(F)c(F)c3)c3ccc(OC(F)(F)F)cc3)CC2)cc1` (centres unmarked) [Compound 195]: the “Percent Mortality” value is listed as 100% and the “Percent Growth Inhibition” value was 100%.
Turning to `CCON=Cc1ccc(CN2CCC(C(OC(=O)Nc3ccc(F)c(F)c3)c3ccc(C(F)(F)F)cc3)CC2)cc1` (centres unmarked) [Compound 196], the “Percent Mortality” value is 100% and the “Percent Growth Inhibition” value is recorded as 100%.
As for `CCON=Cc1ccc(CN2CCC(C(OC(=O)Nc3c(F)cccc3F)c3ccc(C(F)(F)F)cc3)CC2)cc1` (centres unmarked) [Compound 199], the “Percent Mortality” value turned out to be 100% and the “Percent Growth Inhibition” value was 100%.
As for `CCON=Cc1ccc(CN2CCC(C(OC(=O)Nc3cc(F)cc(F)c3)c3ccc(C(F)(F)F)cc3)CC2)cc1` (centres unmarked) [Compound 200], the “Percent Mortality” value is on record as 100% and the “Percent Growth Inhibition” value amounted to 100%.
With `CCON=Cc1ccc(CN2CCC(C(OC(=O)Nc3ccc(F)c(F)c3F)c3ccc(C(F)(F)F)cc3)CC2)cc1` (centres unmarked) [Compound 201], the “Percent Mortality” value is listed as 100% and the “Percent Growth Inhibition” value was determined as 100%.
`CCON=Cc1ccc(CN2CCC(C(OC(=O)Nc3c(F)c(F)c(F)c(F)c3F)c3ccc(C(F)(F)F)cc3)CC2)cc1` (centres unmarked) [Compound 202]: the “Percent Mortality” value stood at 100% and the “Percent Growth Inhibition” value was 100%.
Regarding `CCON=Cc1ccc(CN2CCC(C(OC(=O)Nc3ccccc3C(F)(F)F)c3ccc(C(F)(F)F)cc3)CC2)cc1` (centres unmarked) [Compound 203], the “Percent Mortality” value is 100% and the “Percent Growth Inhibition” value was determined as 100%.
On to `CCON=Cc1ccc(CN2CCC(C(OC(=O)Nc3cccc(C(F)(F)F)c3)c3ccc(C(F)(F)F)cc3)CC2)cc1` (centres unmarked) [Compound 204], for which the “Percent Mortality” value worked out at 100% and the “Percent Growth Inhibition” value stood at 100%.
Regarding `CCON=Cc1ccc(CN2CCC(C(OC(=O)Nc3ccc(C(F)(F)F)cc3)c3ccc(C(F)(F)F)cc3)CC2)cc1` (centres unmarked) [Compound 205], the “Percent Mortality” value is listed as 33% and the “Percent Growth Inhibition” value is 100%.
Take `CCON=Cc1ccc(CN2CCC(C(OC(=O)Nc3ccc(Cl)cc3C(F)(F)F)c3ccc(C(F)(F)F)cc3)CC2)cc1` (centres unmarked) [Compound 206]: the “Percent Mortality” value was 100% and the “Percent Growth Inhibition” value is given as 100%.
Take `CCON=Cc1ccc(CN2CCC(C(OC(=O)Nc3ccc(Cl)c(C(F)(F)F)c3)c3ccc(C(F)(F)F)cc3)CC2)cc1` (centres unmarked) [Compound 207]: the “Percent Mortality” value was found to be 100% and the “Percent Growth Inhibition” value is recorded as 100%.
In the case of `CCON=Cc1ccc(CN2CCC(C(OC(=O)Nc3ccc(Br)cc3C(F)(F)F)c3ccc(C(F)(F)F)cc3)CC2)cc1` (centres unmarked) [Compound 208], the “Percent Mortality” value came out at 100% and the “Percent Growth Inhibition” value worked out at 100%.
As for `CCON=Cc1ccc(CN2CCC(C(OC(=O)Nc3ccc(OC)cc3)c3ccc(C(F)(F)F)cc3)CC2)cc1` (centres unmarked) [Compound 209], the “Percent Mortality” value stood at 100% and the “Percent Growth Inhibition” value is reported as 100%.
In the case of `CCON=Cc1ccc(CN2CCC(C(OC(=O)Nc3cc(Cl)c(OC)cc3OC)c3ccc(C(F)(F)F)cc3)CC2)cc1` (centres unmarked) [Compound 210], the “Percent Mortality” value was found to be 0% and the “Percent Growth Inhibition” value was determined as 67%.
For the compound `CCON=Cc1ccc(CN2CCC(C(OC(=O)Nc3ccc(OC(F)(F)F)cc3)c3ccc(C(F)(F)F)cc3)CC2)cc1` (centres unmarked) [Compound 211], the “Percent Mortality” value came out at 100% and the “Percent Growth Inhibition” value was determined as 100%.
Take `CCON=Cc1ccc(CN2CCC(C(OC(=O)Nc3ccc(-c4ccccc4)cc3)c3ccc(C(F)(F)F)cc3)CC2)cc1` (centres unmarked) [Compound 212]: the “Percent Mortality” value was found to be 100% and the “Percent Growth Inhibition” value came out at 100%.
For `CCON=Cc1ccc(CN2CCC(C(OC(=O)Nc3cccc4c3CC=CC4)c3ccc(C(F)(F)F)cc3)CC2)cc1` (centres unmarked) [Compound 214], the “Percent Mortality” value was determined as 0% and the “Percent Growth Inhibition” value was 100%.
Take `O=C(Nc1ccc(Cl)cc1)OC(c1ccc(C(F)(F)F)cc1)C1CCN(Cc2ccc(Oc3ccccn3)cc2)CC1` (centres unmarked) [Compound 227, N-(4-chlorophenyl)({1-[(4-(2-pyridyloxy)phenyl)methyl](4-piperidyl)}[4-(trifluoromethyl)phenyl]methoxy)carboxamide]: the “Percent Mortality” value was found to be 100% and the “Percent Growth Inhibition” value came to 100%.
Take `O=C(Nc1cccc(Cl)c1Cl)OC(c1ccc(C(F)(F)F)cc1)C1CCN(Cc2ccc(Oc3ccccn3)cc2)CC1` (centres unmarked) [Compound 228]: the “Percent Mortality” value is recorded as 100% and the “Percent Growth Inhibition” value came out at 100%.
As to `O=C(Nc1ccc(Cl)c(Cl)c1)OC(c1ccc(C(F)(F)F)cc1)C1CCN(Cc2ccc(Oc3ccccn3)cc2)CC1` (centres unmarked) [Compound 230], the “Percent Mortality” value is recorded as 100% and the “Percent Growth Inhibition” value came out at 100%.
Turning to `O=C(Nc1cc(Cl)ccc1Cl)OC(c1ccc(C(F)(F)F)cc1)C1CCN(Cc2ccc(Oc3ccccn3)cc2)CC1` (centres unmarked) [Compound 231], the “Percent Mortality” value was 100% and the “Percent Growth Inhibition” value is 100%.
On to `O=C(Nc1cc(Cl)cc(Cl)c1)OC(c1ccc(C(F)(F)F)cc1)C1CCN(Cc2ccc(Oc3ccccn3)cc2)CC1` (centres unmarked) [Compound 232], for which the “Percent Mortality” value came out at 100% and the “Percent Growth Inhibition” value was 100%.
On to `O=C(Nc1c(Cl)cccc1Cl)OC(c1ccc(C(F)(F)F)cc1)C1CCN(Cc2ccc(Oc3ccccn3)cc2)CC1` (centres unmarked) [Compound 233], for which the “Percent Mortality” value amounted to 33% and the “Percent Growth Inhibition” value was found to be 100%.
For `O=C(Nc1cc(Cl)c(Cl)cc1Cl)OC(c1ccc(C(F)(F)F)cc1)C1CCN(Cc2ccc(Oc3ccccn3)cc2)CC1` (centres unmarked) [Compound 234] the same measures were 100% and 100%.
Turning to `O=C(Nc1cccc(F)c1)OC(c1ccc(OC(F)(F)F)cc1)C1CCN(Cc2ccc(Oc3ccccn3)cc2)CC1` (centres unmarked) [Compound 235], the “Percent Mortality” value is listed as 100% and the “Percent Growth Inhibition” value is 100%.
As to `O=C(Nc1ccc(F)cc1)OC(c1ccc(OC(F)(F)F)cc1)C1CCN(Cc2ccc(Oc3ccccn3)cc2)CC1` (centres unmarked) [Compound 236], the “Percent Mortality” value was 100% and the “Percent Growth Inhibition” value was 100%.
For the compound `O=C(Nc1ccc(F)c(F)c1)OC(c1ccc(C(F)(F)F)cc1)C1CCN(Cc2ccc(Oc3ccccn3)cc2)CC1` (centres unmarked) [Compound 237], the “Percent Mortality” value was 100% and the “Percent Growth Inhibition” value turned out to be 100%.
As to `O=C(Nc1ccc(F)c(F)c1)OC(c1ccc(OC(F)(F)F)cc1)C1CCN(Cc2ccc(Oc3ccccn3)cc2)CC1` (centres unmarked) [Compound 238], the “Percent Mortality” value was 100% and the “Percent Growth Inhibition” value worked out at 100%.
Consider `O=C(Nc1cc(F)ccc1F)OC(c1ccc(C(F)(F)F)cc1)C1CCN(Cc2ccc(Oc3ccccn3)cc2)CC1` (centres unmarked) [Compound 239], for which the “Percent Mortality” value was 100% and the “Percent Growth Inhibition” value is given as 100%.

For the origin of these results see patent US7300946B2, “N-(substituted arylmethyl)-4-(disubstituted methyl) piperidines and pyridines” (Bayer CropScience AG, priority 2002, dated 2007).
